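Following 48 hours of exposure in 96-well plates, responses at five concentrations were used to interpolate endpoints linearly. GI50 = concentration required for 50% inhibition of growth. At the TGI there is no net growth.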
How the values were obtained:
Assay in all cases: NCI tumour cell line growth inhibition, 48 h
MCF7 breast = tested on: MCF7 breast
COLO 205 colon = tested on: COLO 205 colon
NCI/ADR-RES ovarian = tested on: NCI/ADR-RES ovarian
K-562 leukemia = tested on: K-562 leukemia
HOP-62 NSCLC = tested on: HOP-62 NSCLC
MDA-N = tested on: MDA-N
TK-10 renal = tested on: TK-10 renal
HOP-92 NSCLC = tested on: HOP-92 NSCLC
HCC-2998 colon = tested on: HCC-2998 colon

SMILES | TGI (MCF7 breast) [µM] | TGI (COLO 205 colon) [µM] | TGI (NCI/ADR-RES ovarian) [µM] | TGI (K-562 leukemia) [µM] | TGI (HOP-62 NSCLC) [µM] | TGI (MDA-N) [µM] | TGI (TK-10 renal) [µM] | TGI (HOP-92 NSCLC) [µM] | TGI (HCC-2998 colon) [µM] | GI50 (COLO 205 colon) [µM] | GI50 (TK-10 renal) [µM] | GI50 (HOP-92 NSCLC) [µM] | GI50 (HCC-2998 colon) [µM]
CC(C)=CCc1c(O)c(CC=C(C)C)c2oc3c(c(=O)c2c1O)C(C=C(C)C)Oc1cc(O)ccc1-3 (centres undefined) | 17.5 | 30.3 | 38.4 | 16.6 | 31 | 12.1 | 13.3 | 28.3 | – | – | – | – | –
[N-]=[N+]=NC1=C(N=[N+]=[N-])c2cccc3cccc(c23)C1=O | > 100 | > 100 | > 100 | > 100 | > 100 | > 100 | > 100 | > 100 | > 100 | – | – | – | –
CSc1nc2ccccc2c(=O)n1-c1cccc(C)c1 | > 100 | > 100 | > 100 | > 100 | > 100 | 72.5 | > 100 | > 100 | 35.1 | – | – | – | –
c1cc(-c2ccc(Oc3ccc(-c4ccncc4)cc3)cc2)ccn1 | > 100 | 18.7 | > 90.9 | > 100 | > 100 | > 100 | > 66.1 | > 88.6 | > 54.5 | – | – | – | –
O=Cc1cc(O)ccc1Br | > 100 | > 100 | > 76.2 | 19.2 | > 96.2 | 25.6 | 99 | 75.7 | 30.1 | – | – | – | –
NC(=S)NS(=O)(=O)c1ccc(F)cc1 | – | > 100 | > 100 | > 100 | > 100 | > 100 | > 100 | > 100 | > 100 | – | – | – | –
COc1ccc(OC)c(CC(=O)c2ccc(O)c(C(=O)NCCc3ccc(F)cc3)c2)c1 | 24.6 | 31.7 | 8.79 | > 100 | 5.63 | – | 45.8 | 41.4 | 13.1 | – | – | – | –
CCCCCCCCCCCCCCCc1ccc(C(=O)C[n+]2ccccc2)cc1 | – | 1.67 | – | – | – | – | 2.72 | 3.93 | 2.55 | 0.475 | 1.12 | 0.295 | 1.27
Brc1ccc(C2(N3CCCCC3)CCCCC2)s1 | > 100 | – | – | 52.5 | > 100 | > 100 | > 100 | 51.2 | 35.3 | – | – | – | –
Nc1nc(SCC(=O)c2ccccc2)nc2nc3c(c(-c4ccccc4)c12)CCCC3 | > 100 | – | > 100 | > 100 | > 100 | > 100 | > 100 | – | > 100 | – | – | – | –
CN(C)c1ccc(C=Nc2ccc(-c3nc4ccccc4o3)cc2)cc1 | > 100 | > 100 | > 100 | > 100 | > 100 | – | > 100 | > 100 | 47.3 | – | – | – | –
O=C1c2cc([N+](=O)[O-])cnc2S(=O)(=O)N1c1ccc(Oc2ccccc2)cc1 | > 100 | > 100 | > 100 | > 100 | > 100 | – | > 100 | > 100 | > 100 | – | – | – | –
CCOP(=O)(OCC)OC1CC(n2cnc3c(N(CC)CC)ncnc32)OC1CO[Si](C)(C)C(C)(C)C (centres undefined) | 39.8 | 32.8 | 51.8 | 57.6 | 34 | 32 | 33 | – | 43.8 | – | – | – | –
O=[N+]([O-])c1ccc2nc(/C=C(\O)c3ccccc3)c(/C=C(\O)c3ccc(Cl)cc3)nc2c1 | > 100 | > 100 | > 100 | > 100 | 88.2 | > 100 | > 100 | – | > 100 | – | – | – | –
c1ccc2c(-c3ccnc(-c4c[nH]c5ccccc45)n3)c[nH]c2c1 | 54.2 | > 100 | > 100 | > 100 | 28.7 | 7.33 | > 100 | 5.83 | – | – | – | – | –
c1ccc(NC2(c3nnnn3C3CCCCC3)CCNCC2)cc1 | 35.1 | 40.9 | > 100 | – | 31.9 | – | 33.3 | 32.3 | 27.3 | – | – | – | –
CNC1=C(C)C(=O)C2=C(C1=O)C(COC(N)=O)C1(OC)C3NC3CN21 (centres undefined) | 10.6 | 1.35 | – | > 100 | 2.38 | 5.65 | 94.1 | – | 1.82 | – | – | – | –
COc1ccc2c(c1)OCC1Cc3cccc(OC)c3OC21 (centres undefined) | – | > 100 | > 100 | – | > 100 | > 100 | > 100 | > 100 | > 100 | – | – | – | –
CN(N=O)C(N)=NC(=O)c1ccccc1 | > 100 | > 100 | > 100 | > 100 | > 100 | > 100 | > 100 | > 100 | – | – | – | – | –
Cc1oc2nc(N(C)C)n3c(C)nnc3c2c1C | > 100 | > 100 | > 100 | > 100 | – | – | > 100 | > 100 | > 100 | – | – | – | –
O=C(N/N=C1\CCc2ccccc21)N/N=C1\CCc2ccccc21 | > 100 | > 100 | > 100 | > 100 | > 100 | 30 | > 100 | – | > 100 | – | – | – | –
Cc1ccc(CCCC(=O)O)cc1C | – | – | > 100 | > 100 | > 100 | > 100 | > 100 | > 100 | – | – | – | – | –
COC(=O)/C=C(\S/C(=C(/c1ccccc1)n1cc(C(=O)OC)c(C(=O)OC)n1)c1ccccc1)C(=O)OC | 22.9 | 4.09 | 89.1 | 31.8 | 31 | 37.9 | 9.22 | – | – | – | – | – | –
O=C(O)c1ccccc1/C=C1\Cc2ccc3c(c2C1=O)CCCC3 | > 100 | > 100 | > 100 | > 100 | > 100 | – | > 100 | 47.6 | 85.1 | – | – | – | –
N#Cc1c(-c2ccccc2)cc(Nc2ccc(F)cc2)n2c1nc1ccccc12 | 5.97 | 2.97 | 13 | > 100 | 40.8 | – | > 54 | – | > 100 | – | – | – | –

From PubChem BioAssay (NCI)
